Experimental data taken from patent US6706663B2, “Herbicidal 3-heterocyclic substituted benzisothiazole and benzisoxazole compounds” (Wyeth, priority 2000, dated 2004).

Columns and labels:
[1] = test system: IPOHE (Ipomoea hederacea); test: Preemergence herbicidal evaluation; type: in vivo, (L.) Jacq.; settings: preemergence, rated 4-5 weeks after treatment
[2] = test system: MOOVA (Monochoria vaginalis); test: Flooded paddy, preemergence weed control; type: in vivo, Presl.; settings: rated 3-4 weeks after treatment, 0-9 rating scale
Procedure, shortened: (§1)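 Greenhouse paddy test, preemergence. Seeds planted in the top 0.5 cm of silt loam soil, which remained flooded at 1.5–3 cm depth. Scored 0-9 by visual comparison with control.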

CYPIR (Cyperus iria) = test: Flooded paddy, preemergence weed control; type: in vivo; settings: rated 3-4 weeks after treatment, 0-9 rating scale
Procedure, shortened: as §1

ZEAMX (Corn, Field) [3] = test: Postemergence herbicidal evaluation; type: in vivo, Zea mays, L.; settings: postemergence
Procedure, shortened: (§2)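 Visual 0–9 injury scores versus control plants, covering stand, vigour, malformation, size, chlorosis and general appearance, taken four to five weeks post-spray and averaged over replicate tests. Plants were sprayed at roughly two weeks old and held on greenhouse benches.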

GALAP (Galium aparine) [4] = test: Postemergence herbicidal evaluation; type: in vivo; settings: postemergence
Procedure, shortened: as §2

[5] = test system: ECHORC (Echinochloa oryzoides); test: Flooded paddy, preemergence weed control; type: in vivo, Echinochloa oryzoides (Ard.) Fritsch.; settings: rated 3-4 weeks after treatment, 0-9 rating scale
Procedure, shortened: as §1

[6] = test system: AMBEL (Ambrosia artemisifolia); test: Preemergence herbicidal evaluation; type: in vivo, L.; settings: preemergence, rated 4-5 weeks after treatment
Procedure, shortened: (§3)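 Rating 0–9, visual, vs control; 4–5 wk after spraying seeded cups with compound in aq. acetone; conventional greenhouse care.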

GALAP (Galium aparine) [7] = test: Preemergence herbicidal evaluation; type: in vivo; settings: preemergence, rated 4-5 weeks after treatment
Procedure, shortened: as §3

[8] = test system: ECHCG (Echinochloa crus-galli); test: Postemergence herbicidal evaluation; type: in vivo, (L.) Beau; settings: postemergence
Procedure, shortened: as §2

ZEAMX (Corn, Field) [9] = test: Preemergence herbicidal evaluation; type: in vivo, Zea mays, L.; settings: preemergence, rated 4-5 weeks after treatment
[10] = test system: GLXMAW (Soybean, Williams); test: Postemergence herbicidal evaluation; type: in vivo, Glycine max, (L.) Merr. cv Williams; settings: postemergence
Procedure, shortened: as §2

[11] = test system: ABUTH (Abutilon theophrasti); test: Postemergence herbicidal evaluation; type: in vivo, Medic.; settings: postemergence
Procedure, shortened: as §2

ORYSAT (Rice, Tebonnet) [12] = test: Postemergence herbicidal evaluation; type: in vivo, Oryza sativa, (L.) Tebonnet; settings: postemergence
Procedure, shortened: as §2

[13] = test system: ABUTH (Abutilon theophrasti); test: Preemergence herbicidal evaluation; type: in vivo, Medic.; settings: preemergence, rated 4-5 weeks after treatment
[14] = test system: SAGPY (Sagittaria pygmaea); test: Flooded paddy, preemergence weed control; type: in vivo, L.; settings: rated 3-4 weeks after treatment, 0-9 rating scale
Procedure, shortened: as §1

GLXMA (Soybean) = test: Preemergence herbicidal evaluation; type: in vivo, Glycine max, (L.) Merr.; settings: preemergence, rated 4-5 weeks after treatment
ORYSAT (Rice, Tebonnet) [15] = test: Flooded paddy, post-transplant rice tolerance; type: in vivo, Oryza sativa, (L.) Tebonnet; settings: flooded paddy, post-transplant rice, rated 3-4 weeks after treatment, 0-9 rating scale
Procedure, shortened: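 Scores (0-9) reflect visual injury relative to untreated plants in flooded silt loam. Each pot held two transplanted ten-day-old seedlings under 1.5 to 3 cm standing water in the greenhouse.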

[16] = test system: CHEAL (Chenopodium album); test: Postemergence herbicidal evaluation; type: in vivo, L.; settings: postemergence
Procedure, shortened: as §2

[17] = test system: AMBEL (Ambrosia artemisifolia); test: Postemergence herbicidal evaluation; type: in vivo, L.; settings: postemergence
Procedure, shortened: as §2

[18] = test system: CASOB (Cassia obtusifolia); test: Postemergence herbicidal evaluation; type: in vivo, L.; settings: postemergence
Procedure, shortened: as §2

[19] = test system: ECHCG (Echinochloa crus-galli); test: Preemergence herbicidal evaluation; type: in vivo, (L.) Beau; settings: preemergence, rated 4-5 weeks after treatment
Procedure, shortened: as §3

[20] = test system: IPOHE (Ipomoea hederacea); test: Postemergence herbicidal evaluation; type: in vivo, (L.) Jacq.; settings: postemergence
Procedure, shortened: as §2

[21] = test system: TRZAWR (Wheat, Winter, cv Riband); test: Postemergence herbicidal evaluation; type: in vivo, Triticum aestivum; settings: postemergence
Procedure, shortened: as §2

Cn1c(C(F)(F)F)cc(=O)n(-c2ccc3snc(-c4nc5ccccc5[nH]c4=O)c3c2)c1=O [Compound 90, 3-[3-(3,4-dihydro-3-oxo-2-quinoxalinyl)-1,2-benzisothiazol-5-yl]-1-methyl-6-(trifluoromethyl)uracil]
1.0: Preemergence herbicidal rating ECHCG ([19]; rate 0.2500 kg/ha)
2.8: TRZAWR herbicidal rating ([21]; rate 0.0320 kg/ha) | TRZAWR herbicidal rating ([21]; rate 0.0620 kg/ha)
3.5: Preemergence herbicidal rating AMBEL ([6]; rate 0.2500 kg/ha) | Preemergence herbicidal rating ABUTH ([13]; rate 0.1250 kg/ha)
5.0: GALAP herbicidal rating (GALAP (Galium aparine) [4]; rate 0.1250 kg/ha) | CASOB herbicidal rating ([18]; rate 0.0320 kg/ha) | CASOB herbicidal rating ([18]; rate 0.0620 kg/ha) | CASOB herbicidal rating ([18]; rate 0.1250 kg/ha)
8.0: IPOHE herbicidal rating ([20]; rate 0.0620 kg/ha)
0.0: Preemergence herbicidal rating IPOHE ([1]; rate 0.0620 kg/ha) | Preemergence herbicidal rating IPOHE ([1]; rate 0.1250 kg/ha) | MOOVA herbicidal rating ([2]; rate 0.0320 kg/ha) | MOOVA herbicidal rating ([2]; rate 0.1250 kg/ha) | CYPIR herbicidal rating (CYPIR (Cyperus iria); rate 0.0320 kg/ha) | CYPIR herbicidal rating (CYPIR (Cyperus iria); rate 0.1250 kg/ha) | ECHORC herbicidal rating ([5]; rate 0.0320 kg/ha) | ECHORC herbicidal rating ([5]; rate 0.1250 kg/ha) | Preemergence herbicidal rating AMBEL ([6]; rate 0.0620 kg/ha) | Preemergence herbicidal rating GALAP (GALAP (Galium aparine) [7]; rate 0.0620 kg/ha) | Preemergence herbicidal rating GALAP (GALAP (Galium aparine) [7]; rate 0.1250 kg/ha) | Preemergence herbicidal rating ZEAMX (ZEAMX (Corn, Field) [9]; rate 0.0620 kg/ha) | Preemergence herbicidal rating ZEAMX (ZEAMX (Corn, Field) [9]; rate 0.1250 kg/ha) | Preemergence herbicidal rating ZEAMX (ZEAMX (Corn, Field) [9]; rate 0.2500 kg/ha) | Preemergence herbicidal rating ABUTH ([13]; rate 0.0620 kg/ha) | SAGPY herbicidal rating ([14]; rate 0.0320 kg/ha) | SAGPY herbicidal rating ([14]; rate 0.1250 kg/ha) | Preemergence herbicidal rating GLXMA (GLXMA (Soybean); rate 0.0620 kg/ha) | Preemergence herbicidal rating GLXMA (GLXMA (Soybean); rate 0.1250 kg/ha) | Preemergence herbicidal rating GLXMA (GLXMA (Soybean); rate 0.2500 kg/ha) | ORYSAT herbicidal rating (transplanted rice tolerance) (ORYSAT (Rice, Tebonnet) [15]; rate 0.0320 kg/ha) | ORYSAT herbicidal rating (transplanted rice tolerance) (ORYSAT (Rice, Tebonnet) [15]; rate 0.1250 kg/ha) | Preemergence herbicidal rating ECHCG ([19]; rate 0.0620 kg/ha) | Preemergence herbicidal rating ECHCG ([19]; rate 0.1250 kg/ha)
6.5: GLXMAW herbicidal rating ([10]; rate 0.1250 kg/ha) | AMBEL herbicidal rating ([17]; rate 0.0320 kg/ha) | AMBEL herbicidal rating ([17]; rate 0.0620 kg/ha) | IPOHE herbicidal rating ([20]; rate 0.0320 kg/ha)
6.0: GLXMAW herbicidal rating ([10]; rate 0.0320 kg/ha)
4.0: GALAP herbicidal rating (GALAP (Galium aparine) [4]; rate 0.0320 kg/ha) | GALAP herbicidal rating (GALAP (Galium aparine) [4]; rate 0.0620 kg/ha) | ECHCG herbicidal rating ([8]; rate 0.1250 kg/ha)
7.5: ABUTH herbicidal rating ([11]; rate 0.0320 kg/ha) | ABUTH herbicidal rating ([11]; rate 0.0620 kg/ha)
9.0: ABUTH herbicidal rating ([11]; rate 0.1250 kg/ha) | Preemergence herbicidal rating ABUTH ([13]; rate 0.2500 kg/ha) | CHEAL herbicidal rating ([16]; rate 0.0320 kg/ha) | CHEAL herbicidal rating ([16]; rate 0.0620 kg/ha) | CHEAL herbicidal rating ([16]; rate 0.1250 kg/ha) | AMBEL herbicidal rating ([17]; rate 0.1250 kg/ha) | IPOHE herbicidal rating ([20]; rate 0.1250 kg/ha)
6.3: GLXMAW herbicidal rating ([10]; rate 0.0620 kg/ha)
2.5: ZEAMX herbicidal rating (ZEAMX (Corn, Field) [3]; rate 0.1250 kg/ha) | ORYSAT herbicidal rating (ORYSAT (Rice, Tebonnet) [12]; rate 0.0620 kg/ha)
3.3: ZEAMX herbicidal rating (ZEAMX (Corn, Field) [3]; rate 0.0320 kg/ha) | ZEAMX herbicidal rating (ZEAMX (Corn, Field) [3]; rate 0.0620 kg/ha)
2.0: ECHCG herbicidal rating ([8]; rate 0.0320 kg/ha) | ORYSAT herbicidal rating (ORYSAT (Rice, Tebonnet) [12]; rate 0.0320 kg/ha) | ORYSAT herbicidal rating (ORYSAT (Rice, Tebonnet) [12]; rate 0.1250 kg/ha) | TRZAWR herbicidal rating ([21]; rate 0.1250 kg/ha)
3.0: Preemergence herbicidal rating GALAP (GALAP (Galium aparine) [7]; rate 0.2500 kg/ha) | ECHCG herbicidal rating ([8]; rate 0.0620 kg/ha)
1.5: Preemergence herbicidal rating IPOHE ([1]; rate 0.2500 kg/ha) | Preemergence herbicidal rating AMBEL ([6]; rate 0.1250 kg/ha)
